The results in this text go back to ChEMBL document CHEMBL3739325, “Design of pyrazolo-pyrimidines as 11-HSD1 inhibitors through optimisation of molecular electrostatic potential” (Medchemcomm, 2015).

Data set [1] can be described thus: Lipophilicity, log D of the compound in octanol at pH 7.4. Type of data set: physicochemical.
In data set [2] the test system is human transporter (not named). Briefly: Apparent permeability of the compound in MDCK cells expressing human transporter […]. To be noted: dog. Type of data set: ADME, cell-based, Canis lupus familiaris.
The nature of data set [3]: Ratio of total drug uptake in brain to blood in Han Wistar rat after 1 hr. Type of data set: ADME, tissue-based. To be noted: brain and blood, read-out: BBR.

By logD is commonly meant lipophilicity at a set pH, counting ionised and neutral species. High values mean a more lipophilic compound, low ones a more hydrophilic compound. For the compound `N#Cc1cnc2c(C(=O)N[C@H]3C4CC5CC3C[C@](O)(C5)C4)cnn2c1`, the logD in data set [1] was 0.6.
In the case of `Cc1cc(C(F)(F)F)n2ncc(C(=O)N[C@H]3C4CC5CC3C[C@](O)(C5)C4)c2n1`, the logD in data set [1] was determined as 2.3.
The compound `O=C(N[C@H]1C2CC3CC1C[C@](O)(C3)C2)c1cnn2c(C(F)F)cc(C3CC3)nc12` yielded a log distribution coefficient (logD) in data set [1] of 2.8.
Turning to `Cc1cc(C)n2ncc(C(=O)N[C@H]3C4CC5CC3C[C@](C#N)(C5)C4)c2n1`, the log distribution coefficient (logD) in data set [1] came out at 2.9.
For orientation: Papp means the rate of passage across a membrane or cell layer, normalised by area and donor concentration. With `CO[C@]12CC3CC(C1)[C@@H](NC(=O)c1cnn4cc(C)cnc14)C(C3)C2`, the log distribution coefficient (logD) in data set [1] amounted to 2.6. In addition, the Papp in data set [2] was 49 ×10⁻⁶ cm/s.
On to `O=C(N[C@H]1C2CC3CC1C[C@](O)(C3)C2)c1cnn2cccnc12`, for which the log distribution coefficient (logD) in data set [1] is 1.4.
In data set [1], `O=C(N[C@H]1C2CC3CC1C[C@](O)(C3)C2)c1cnc2cccnn12` yielded a logD of 1.2.
Still for that read-out and setting: to `O=C(NC1C2CC3CC(C2)CC1C3)c1cnn2cccnc12` (stereo not given) belongs 3.5; to `COc1cnc2c(C(=O)N[C@H]3C4CC5CC3C[C@](O)(C5)C4)cnn2c1`, 1.8.
The compound `Cc1ccnc2c(C(=O)N[C@H]3C4CC5CC3C[C@](O)(C5)C4)cnn12` registered a logD in data set [1] of 2. Besides, the Kp at 1 h in data set [3] worked out at 0.3.
In turn, `O=C(N[C@H]1C2CC3CC1C[C@](O)(C3)C2)c1cnn2cc(Cl)cnc12` returned a log distribution coefficient (logD) in data set [1] of 1.8. Also, the apparent permeability (Papp) in data set [2] turned out to be 44 ×10⁻⁶ cm/s. For the same compound, the Kp at 1 h in data set [3] is 0.3.
`COCc1cc(C)n2ncc(C(=O)N[C@H]3C4CC5CC3C[C@](O)(C5)C4)c2n1` came in with a log distribution coefficient (logD) in data set [1] of 1.8.
As for `Cc1cnc2c(C(=O)N[C@H]3C4CC5CC3C[C@](C#N)(C5)C4)cnn2c1`, the logD in data set [1] amounted to 2.3. For the same compound, the Papp in data set [2] was determined as 46 ×10⁻⁶ cm/s. The Kp at 1 h in data set [3] worked out at 1.6.
In the same order, the values of `N#C[C@]12CC3CC(C1)[C@@H](NC(=O)c1cnn4cc(Cl)cnc14)C(C3)C2` are 2.5, 41 ×10⁻⁶ cm/s and 0.6.
Turning to `Cc1ccn2ncc(C(=O)N[C@H]3C4CC5CC3C[C@](O)(C5)C4)c2n1`, the logD in data set [1] was found to be 1.9.
For `O=C(N[C@H]1C2CC3CC1C[C@](O)(C3)C2)c1cnn2c(C(F)(F)F)ccnc12`, in data set [1], the log distribution coefficient (logD) is 2. The logD values of the last two compounds are within 0.2 log units of each other.
As to `Cc1cc(C(F)F)n2ncc(C(=O)N[C@H]3C4CC5CC3C[C@](O)(C5)C4)c2n1`, the logD in data set [1] was found to be 2.2.
`COCc1cc(C)nc2c(C(=O)N[C@H]3C4CC5CC3C[C@](O)(C5)C4)cnn12` returned a logD in data set [1] of 2.1.
The same measure, in the same setting: the value for `COCc1cc(C)n2ncc(C(=O)N[C@H]3C4CC5CC3C[C@](C#N)(C5)C4)c2n1` was 2.4.
Consider `Cc1cnc2c(C(=O)N[C@H]3C4CC5CC3C[C@](O)(C5)C4)cnn2c1`, for which the logD in data set [1] is 1.7. Also, in data set [2], the apparent permeability (Papp) turned out to be 29 ×10⁻⁶ cm/s. Further, the Kp at 1 h in data set [3] was 0.3.
In the case of `Cc1ccnc2c(C(=O)N[C@H]3C4CC5CC3C[C@](C#N)(C5)C4)cnn12`, in data set [1], the logD worked out at 2.4.
With `Cc1cc(C)n2ncc(C(=O)N[C@H]3C4CC5CC3C[C@](O)(C5)C4)c2n1`, in data set [1], the logD worked out at 2.
Same read-out and setting: to `O=C(N[C@H]1C2CC3CC1C[C@](O)(C3)C2)c1cnn2ccccc12` belongs 1.5; to `N#C[C@]12CC3CC(C1)[C@@H](NC(=O)c1cnn4cc(CCO)cnc14)C(C3)C2`, 1.6; to `COCc1cc(C)nc2c(C(=O)N[C@H]3C4CC5CC3C[C@](C#N)(C5)C4)cnn12`, 2.7.
